Structures can show the parent of a compound that is named as a salt.
What was measured:
NaV1.5 = NaV1.5 (Homo sapiens (Human), UniProt Q14524); experiment: Sodium Influx Assay (Flux), NaV1.5; conditions: read-out: Flux NaV1.5 IC50; Trex HEK293 cells, ANG2 dye; arithmetic mean
NaV1.6 = NaV1.6 (Homo sapiens (Human), UniProt Q9UQD0); experiment: Sodium Influx Assay (Flux), NaV1.6; conditions: read-out: Flux NaV1.6 IC50; Trex HEK293 cells, ANG2 dye; arithmetic mean
NaV1.1 = NaV1.1 (Homo sapiens (Human), UniProt P35498); experiment: Sodium Influx Assay (Flux), NaV1.1; type: cell-based; conditions: Trex HEK293 cells, ANG2 dye; arithmetic mean

Sequence of NaV1.5 (Q14524 other isoform, or with tags, fused parts or gaps): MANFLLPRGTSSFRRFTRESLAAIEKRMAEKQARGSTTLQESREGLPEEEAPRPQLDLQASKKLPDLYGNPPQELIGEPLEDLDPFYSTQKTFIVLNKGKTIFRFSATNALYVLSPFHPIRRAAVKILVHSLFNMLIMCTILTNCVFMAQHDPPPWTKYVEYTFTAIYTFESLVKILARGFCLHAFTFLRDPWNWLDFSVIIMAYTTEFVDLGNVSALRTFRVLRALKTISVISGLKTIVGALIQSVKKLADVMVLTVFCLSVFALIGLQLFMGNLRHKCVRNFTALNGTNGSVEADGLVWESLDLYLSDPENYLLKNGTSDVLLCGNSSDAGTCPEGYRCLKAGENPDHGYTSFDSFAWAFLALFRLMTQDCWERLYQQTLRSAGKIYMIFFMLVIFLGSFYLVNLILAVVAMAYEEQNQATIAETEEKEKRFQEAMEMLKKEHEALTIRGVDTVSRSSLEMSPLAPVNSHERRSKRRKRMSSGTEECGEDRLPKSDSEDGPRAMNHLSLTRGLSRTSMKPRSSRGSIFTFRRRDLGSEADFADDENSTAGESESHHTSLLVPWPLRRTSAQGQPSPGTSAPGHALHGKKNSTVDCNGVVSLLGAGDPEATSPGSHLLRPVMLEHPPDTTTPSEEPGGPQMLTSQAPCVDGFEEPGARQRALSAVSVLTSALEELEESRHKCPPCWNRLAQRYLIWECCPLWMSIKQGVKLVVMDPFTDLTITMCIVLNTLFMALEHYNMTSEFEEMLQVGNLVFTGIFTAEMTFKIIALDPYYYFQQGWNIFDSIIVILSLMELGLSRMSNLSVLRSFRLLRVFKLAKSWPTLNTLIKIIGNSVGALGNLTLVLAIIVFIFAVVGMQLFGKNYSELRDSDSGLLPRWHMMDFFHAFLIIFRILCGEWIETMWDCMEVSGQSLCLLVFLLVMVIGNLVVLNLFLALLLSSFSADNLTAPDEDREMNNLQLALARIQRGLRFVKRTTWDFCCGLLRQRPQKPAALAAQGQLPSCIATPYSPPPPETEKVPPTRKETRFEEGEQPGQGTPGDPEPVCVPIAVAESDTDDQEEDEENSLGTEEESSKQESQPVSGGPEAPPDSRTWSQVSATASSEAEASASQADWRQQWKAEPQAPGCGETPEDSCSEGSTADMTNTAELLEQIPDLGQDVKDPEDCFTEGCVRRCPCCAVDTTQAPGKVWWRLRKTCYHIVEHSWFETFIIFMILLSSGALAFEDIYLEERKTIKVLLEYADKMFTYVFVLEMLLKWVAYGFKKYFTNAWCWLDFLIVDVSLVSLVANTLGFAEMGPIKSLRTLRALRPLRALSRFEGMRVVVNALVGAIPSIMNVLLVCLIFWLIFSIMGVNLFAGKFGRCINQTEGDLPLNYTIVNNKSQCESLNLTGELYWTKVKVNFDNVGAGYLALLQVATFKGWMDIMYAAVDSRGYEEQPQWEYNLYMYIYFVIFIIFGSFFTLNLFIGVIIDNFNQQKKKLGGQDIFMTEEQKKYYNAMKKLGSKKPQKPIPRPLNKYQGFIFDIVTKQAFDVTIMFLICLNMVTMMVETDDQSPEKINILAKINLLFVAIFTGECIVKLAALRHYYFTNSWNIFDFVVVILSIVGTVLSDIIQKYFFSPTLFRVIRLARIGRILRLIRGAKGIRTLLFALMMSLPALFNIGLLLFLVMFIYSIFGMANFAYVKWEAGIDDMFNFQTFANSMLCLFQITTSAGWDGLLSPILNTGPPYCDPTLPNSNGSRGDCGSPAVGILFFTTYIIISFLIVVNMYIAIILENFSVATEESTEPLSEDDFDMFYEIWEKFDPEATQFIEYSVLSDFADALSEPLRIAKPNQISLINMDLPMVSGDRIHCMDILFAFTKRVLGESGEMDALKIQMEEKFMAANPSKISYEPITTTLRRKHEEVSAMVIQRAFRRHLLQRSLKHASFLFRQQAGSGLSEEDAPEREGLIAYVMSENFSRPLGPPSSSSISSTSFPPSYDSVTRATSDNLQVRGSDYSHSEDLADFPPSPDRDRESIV

Compound	IC50 (NaV1.5)	IC50 (NaV1.6)	IC50 (NaV1.1)
Cc1cc(S(=O)(=O)Nc2cscn2)c(F)cc1N(C)[C@H]1CCN(CCc2ccccc2)C1 [Example 115, (S)-2-fluoro-5-methyl-4-(methyl(1-phenethylpyrrolidin-3-yl)amino)-N-(thiazol-4-yl)benzenesulfonamide]	19.3 µM	1.6 µM	6.75 µM
Cc1cc(S(=O)(=O)Nc2cscn2)c(F)cc1N(C)[C@H]1CCN(Cc2ncccc2OC(C)C)C1 [Example 116, (S)-2-fluoro-4-((1-((3-isopropoxypyridin-2-yl)methyl)pyrrolidin-3-yl)(methyl)amino)-5-methyl-N-(thiazol-4-yl)benzenesulfonamide formate]	> 30 µM	0.529 µM	29.3 µM
Cc1cc(S(=O)(=O)Nc2cscn2)c(F)cc1N(C)[C@H]1CCN([C@H]2C[C@H](c3ccccc3)C2)C1 [Example 117, 2-fluoro-5-methyl-4-(methyl((S)-1-((1r,3S)-3-phenylcyclobutyl)-pyrrolidin-3-yl)amino)-N-(thiazol-4-yl)benzenesulfonamide formate]	3.09 µM	1.45 µM	2.26 µM
Cc1cc(S(=O)(=O)Nc2cscn2)c(F)cc1N(C)[C@H]1CCN(Cc2ccn(CC(F)(F)F)n2)C1 [Example 118, (S)-2-fluoro-5-methyl-4-(methyl(1-((1-(2,2,2-trifluoroethyl)-1H-pyrazol-3-yl)methyl)pyrrolidin-3-yl)amino)-N-(thiazol-4-yl)benzenesulfonamide]	> 30 µM	0.058 µM	12.9 µM
COc1ccccc1CN1CC[C@H](N(C)c2cc(F)c(S(=O)(=O)Nc3cscn3)cc2C)C1 [Example 119, (S)-2-fluoro-4-((1-(2-methoxybenzyl)-pyrrolidin-3-yl)(methyl)amino)-5-methyl-N-(thiazol-4-yl)benzenesulfonamide formate]	20.2 µM	0.368 µM	28.8 µM
COc1cccnc1CN1CC[C@H](N(C)c2cc(F)c(S(=O)(=O)Nc3cscn3)cc2C)C1 [Example 120, (S)-2-fluoro-4-((1-((3-methoxypyridin-2-yl)methyl)pyrrolidin-3-yl)(methyl)amino)-5-methyl-N-(thiazol-4-yl)benzenesulfonamide formate]	22.9 µM	0.39 µM	> 30 µM
Cc1cc(CN2CC[C@H](N(C)c3cc(F)c(S(=O)(=O)Nc4cscn4)cc3C)C2)ns1 [Example 121, (S)-2-fluoro-5-methyl-4-(methyl(1-((5-methylisothiazol-3-yl)methyl)pyrrolidin-3-yl)amino)-N-(thiazol-4-yl)benzenesulfonamide formate]	> 30 µM	1.47 µM	> 30 µM
Cc1cc(S(=O)(=O)Nc2cscn2)c(F)cc1N(C)[C@H]1CCN(Cc2cc3ccccn3n2)C1 [Example 122, (S)-2-fluoro-5-methyl-4-(methyl(1-(pyrazolo[1,5-a]pyridin-2-ylmethyl)pyrrolidin-3-yl)amino)-N-(thiazol-4-yl)benzenesulfonamide]	24.2 µM	1.72 µM	26.9 µM
Cc1cc(S(=O)(=O)Nc2cscn2)c(F)cc1N(C)[C@H]1CCN(CC2CCCCC2)C1 [Example 123, (S)-4-((1-(cyclohexylmethyl)-pyrrolidin-3-yl)(methyl)amino)-2-fluoro-5-methyl-N-(thiazol-4-yl)benzenesulfonamide]	> 30 µM	4 µM	7.48 µM
Cc1cc(S(=O)(=O)Nc2cscn2)c(F)cc1N(C)[C@H]1CCN(CC(C)(C)C)C1 [Example 124, (S)-2-fluoro-5-methyl-4-(methyl(1-neopentylpyrrolidin-3-yl)amino)-N-(thiazol-4-yl)benzenesulfonamide formate]	> 30 µM	9.92 µM	> 30 µM
Cc1cc(S(=O)(=O)Nc2cscn2)c(F)cc1N(C)[C@H]1CCN(CCC(C)(C)C)C1 [Example 125, (S)-4-((1-(3,3-dimethylbutyl)-pyrrolidin-3-yl)(methyl)amino)-2-fluoro-5-methyl-N-(thiazol-4-yl)benzenesulfonamide formate]	> 30 µM	2.32 µM	14.7 µM
Cc1cc(S(=O)(=O)Nc2cscn2)c(F)cc1N(C)[C@H]1CCN(Cc2ccc(O)cc2)C1 [Example 126, (S)-2-fluoro-4-((1-(4-hydroxybenzyl)-pyrrolidin-3-yl)(methyl)amino)-5-methyl-N-(thiazol-4-yl)benzenesulfonamide]	> 30 µM	4.52 µM	> 30 µM
Cc1cc(S(=O)(=O)Nc2cscn2)c(F)cc1N(C)[C@H]1CCN(Cc2cccc(C)c2F)C1 [Example 127, (S)-2-fluoro-4-((1-(2-fluoro-3-methylbenzyl)pyrrolidin-3-yl)(methyl)amino)-5-methyl-N-(thiazol-4-yl)benzenesulfonamide 2,2,2-trifluoroacetate]	10.1 µM	0.52 µM	10.7 µM
Cc1cc(S(=O)(=O)Nc2cscn2)c(F)cc1N(C)[C@H]1CCN([C@H]2CCc3ccccc32)C1 [Example 128, 4-(((S)-1-((S)-2,3-dihydro-1H-inden-1-yl)pyrrolidin-3-yl)(methyl)amino)-2-fluoro-5-methyl-N-(thiazol-4-yl)benzenesulfonamide]	22.5 µM	0.185 µM	> 30 µM
Cc1csc(CN2CC[C@H](N(C)c3cc(F)c(S(=O)(=O)Nc4cscn4)cc3C)C2)n1 [Example 129, (S)-2-fluoro-5-methyl-4-(methyl(1-((4-methylthiazol-2-yl)methyl)pyrrolidin-3-yl)amino)-N-(thiazol-4-yl)benzenesulfonamide]	> 30 µM	0.828 µM	> 30 µM
Cc1ccc(F)c(CN2CC[C@H](N(C)c3cc(F)c(S(=O)(=O)Nc4cscn4)cc3C)C2)n1 [Example 130, (S)-2-fluoro-4-((1-((3-fluoro-6-methylpyridin-2-yl)methyl)pyrrolidin-3-yl)(methyl)amino)-5-methyl-N-(thiazol-4-yl)benzenesulfonamide]	24.2 µM	0.285 µM	> 30 µM
Cc1nc(CN2CC[C@H](N(C)c3cc(F)c(S(=O)(=O)Nc4cscn4)cc3C)C2)co1 [Example 131, (S)-2-fluoro-5-methyl-4-(methyl(1-((2-methyloxazol-4-yl)methyl)pyrrolidin-3-yl)amino)-N-(thiazol-4-yl)benzenesulfonamide]	> 30 µM	2.86 µM	> 30 µM
Cc1ccc(CN2CC[C@H](N(C)c3cc(F)c(S(=O)(=O)Nc4cscn4)cc3C)C2)o1 [Example 132, (S)-2-fluoro-5-methyl-4-(methyl(1-((5-methylfuran-2-yl)methyl)pyrrolidin-3-yl)amino)-N-(thiazol-4-yl)benzenesulfonamide]	> 30 µM	0.146 µM	20.9 µM
Cc1cc(S(=O)(=O)Nc2cscn2)c(F)cc1N(C)[C@H]1CCN(Cc2coc(C(C)C)n2)C1 [Example 133, (S)-2-fluoro-4-((1-((2-isopropyloxazol-4-yl)methyl)pyrrolidin-3-yl)(methyl)amino)-5-methyl-N-(thiazol-4-yl)benzenesulfonamide]	> 30 µM	0.245 µM	10.9 µM
Cc1cc(S(=O)(=O)Nc2cscn2)c(F)cc1N(C)[C@H]1CCN(Cc2nc(C3CC3)cs2)C1 [Example 134, (S)-4-((1-((4-cyclopropylthiazol-2-yl)methyl)pyrrolidin-3-yl)(methyl)amino)-2-fluoro-5-methyl-N-(thiazol-4-yl)benzenesulfonamide]	> 30 µM	0.412 µM	12.1 µM
Cc1cc(S(=O)(=O)Nc2cscn2)c(F)cc1N(C)[C@H]1CCN(Cc2csc(-c3ccccc3)n2)C1 [Example 135, (S)-2-fluoro-5-methyl-4-(methyl(1-((2-phenylthiazol-4-yl)methyl)pyrrolidin-3-yl)amino)-N-(thiazol-4-yl)benzenesulfonamide]	1.67 µM	0.64 µM	0.564 µM
Cc1cc(S(=O)(=O)Nc2cscn2)c(F)cc1N(C)[C@H]1CCN(Cc2nccs2)C1 [Example 136, (S)-2-fluoro-5-methyl-4-(methyl(1-(thiazol-2-ylmethyl)pyrrolidin-3-yl)amino)-N-(thiazol-4-yl)benzenesulfonamide]	> 30 µM	6.79 µM	> 30 µM
Cc1cc(S(=O)(=O)Nc2cscn2)c(F)cc1N(C)[C@H]1CCN(Cc2csc(C(F)(F)F)n2)C1 [Example 137, (S)-2-fluoro-5-methyl-4-(methyl(1-((2-(trifluoromethyl)thiazol-4-yl)methyl)pyrrolidin-3-yl)amino)-N-(thiazol-4-yl)benzenesulfonamide]	16.5 µM	0.217 µM	5.07 µM
Cc1cc(S(=O)(=O)Nc2cscn2)c(F)cc1N(C)[C@H]1CCN(Cc2csc(C3CC3)n2)C1 [Example 138, (S)-4-((1-((2-cyclopropylthiazol-4-yl)methyl)pyrrolidin-3-yl)(methyl)amino)-2-fluoro-5-methyl-N-(thiazol-4-yl)benzenesulfonamide]	10.4 µM	0.05 µM	9.48 µM
Cc1coc(CN2CC[C@H](N(C)c3cc(F)c(S(=O)(=O)Nc4cscn4)cc3C)C2)n1 [Example 139, (S)-2-fluoro-5-methyl-4-(methyl(1-((4-methyloxazol-2-yl)methyl)pyrrolidin-3-yl)amino)-N-(thiazol-4-yl)benzenesulfonamide]	> 30 µM	7.73 µM	> 30 µM
Cc1cc(S(=O)(=O)Nc2cscn2)c(F)cc1N(C)[C@H]1CCN(Cc2cscn2)C1 [Example 140, (S)-2-fluoro-5-methyl-4-(methyl(1-(thiazol-4-ylmethyl)pyrrolidin-3-yl)amino)-N-(thiazol-4-yl)benzenesulfonamide]	> 30 µM	2.08 µM	> 30 µM
